From US10610520B2, “Heterocyclic compound” (Takeda Pharmaceutical Company Limited, priority 2016, dated 2020)

target: T1, His-hMAGL (recombinant polyhistidine tagged human MAGL protein) (Homo sapiens, UniProt Q99685); experiment: Measurement of MAGL inhibitory activity (arachidonic acid production from 2-arachidonylglycerol, RapidFire-mass spectrometry); format: biochemical; conditions: MAGL inhibitory rate, test compound 10 μM, 60 min preincubation, 2-arachidonylglycerol substrate
T1 construct: made in house; host or cells: E. coli BL21(DE3)
T1 sequence (Q99685 1-303): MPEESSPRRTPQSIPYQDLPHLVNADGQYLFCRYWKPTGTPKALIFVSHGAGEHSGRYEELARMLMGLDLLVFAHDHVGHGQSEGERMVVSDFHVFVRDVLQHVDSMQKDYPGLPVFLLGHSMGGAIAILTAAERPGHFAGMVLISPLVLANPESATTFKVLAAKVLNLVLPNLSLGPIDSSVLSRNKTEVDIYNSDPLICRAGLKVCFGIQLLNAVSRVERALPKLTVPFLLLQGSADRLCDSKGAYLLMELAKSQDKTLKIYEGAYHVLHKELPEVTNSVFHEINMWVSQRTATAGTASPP
Summary of the method: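 Arachidonic acid formed was quantified by online solid-phase extraction and triple-quadrupole MS in negative SRM mode against a d8 internal standard. Reaction: recombinant His-hMAGL (7.5 ng/mL, pH 7.5 Tris buffer with Triton X-100 and BSA) plus 2-AG (5 μL of 150 μM stock) for 10 min at room temperature, quenched with 2% formic acid. Percent inhibition corrected for enzyme-free background.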

| Compound | inhibition at 10 µM [%] |
| --- | --- |
| O=C1CCC2(CN(C(=O)N3CCC(F)(Cc4ccc(F)cc4)CC3)C2)N1 [Example 97, 2-((4-fluoro-4-(4-fluorobenzyl)piperidin-1-yl)carbonyl)-2,5-diazaspiro[3.4]octan-6-one] | 96 |
| O=C1CCC2(CN(C(=O)N3CCC(Cc4ccc(F)cc4F)CC3)C2)N1 [Example 98, 2-((4-(2,4-difluorobenzyl)piperidin-1-yl)carbonyl)-2,5-diazaspiro[3.4]octan-6-one] | 101 |
| O=C1CCC2(CN(C(=O)N3CCC(Cc4ccc(Cl)cc4)CC3)C2)N1 [Example 99, 2-((4-(4-chlorobenzyl)piperidin-1-yl)carbonyl)-2,5-diazaspiro[3.4]octan-6-one] | 100 |
| O=C1CCC2(CN(C(=O)N3CCC(Cc4cccc(Cl)c4)CC3)C2)N1 [Example 100, 2-((4-(3-chlorobenzy)lpiperidin-1-yl)carbonyl)-2,5-diazaspiro[3.4]octan-6-one] | 102 |
| O=C1CCC2(CN(C(=O)N3CCC(Cc4ccccc4Cl)CC3)C2)N1 [Example 101, 2-((4-(2-chlorobenzyl)piperidin-1-yl)carbonyl)-2,5-diazaspiro[3.4]octan-6-one] | 99 |
| O=C1CCC2(CN(C(=O)N3CCC(Cc4ccc(Cl)cc4Cl)CC3)C2)N1 [Example 102, 2-((4-(2,4-dichlorobenzyl)piperidin-1-yl)carbonyl)-2,5-diazaspiro[3.4]octan-6-one] | 102 |
| O=C1CCC2(CN(C(=O)N3CCC(Cc4ccc(Cl)c(Cl)c4)CC3)C2)N1 [Example 103, 2-((4-(3,4-dichlorobenzyl)piperidin-1-yl)carbonyl)-2,5-diazaspiro[3.4]octan-6-one] | 103 |
| Cc1cc(Cl)ccc1CC1CCN(C(=O)N2CC3(CCC(=O)N3)C2)CC1 [Example 104, 2-((4-(4-chloro-2-methylbenzyl)piperidin-1-yl)carbonyl)-2,5-diazaspiro[3.4]octan-6-one] | 98 |
| O=C1CCC2(CN(C(=O)N3CCC(Cc4ccc(Cl)cc4C(F)(F)F)CC3)C2)N1 [Example 105, 2-((4-(4-chloro-2-(trifluoromethyl)benzyl)piperidin-1-yl)carbonyl)-2,5-diazaspiro[3.4]octan-6-one] | 102 |
| O=C1CCC2(CN(C(=O)N3CCC(Cc4ccc(C(F)(F)F)cc4)CC3)C2)N1 [Example 106, 2-((4-(4-(trifluoromethyl)benzyl)piperidin-1-yl)carbonyl)-2,5-diazaspiro[3.4]octan-6-one] | 101 |
| O=C1CCC2(CN(C(=O)N3CCC(Cc4ccc(C(F)(F)F)cc4Cl)CC3)C2)N1 [Example 107, 2-((4-(2-chloro-4-(trifluoromethyl)benzyl)piperidin-1-yl)carbonyl)-2,5-diazaspiro[3.4]octan-6-one] | 98 |
| O=C1CCC2(CN(C(=O)N3CCC(Cc4cc(C(F)(F)F)cc(C(F)(F)F)c4)CC3)C2)N1 [Example 108, 2-((4-(3,5-bis(trifluoromethyl)benzyl)piperidin-1-yl)carbonyl)-2,5-diazaspiro[3.4]octan-6-one] | 104 |
| COC(=O)c1ccc(-c2ccc(CC3CCN(C(=O)N4CC5(CCC(=O)N5)C4)CC3)cc2)cc1 [Example 109, methyl 4′-((1-((6-oxo-2,5-diazaspiro[3.4]oct-2-yl)carbonyl)piperidin-4-yl)methyl)biphenyl-4-carboxylate] | 98 |
| COC(=O)c1cccc(-c2ccc(CC3CCN(C(=O)N4CC5(CCC(=O)N5)C4)CC3)cc2)c1 [Example 110, methyl 4′-((1-((6-oxo-2,5-diazaspiro[3.4]oct-2-yl)carbonyl)piperidin-4-yl)methyl)biphenyl-3-carboxylate] | 101 |
| O=C1CCC2(CN(C(=O)N3CCC(Cc4ccc(N5CCCCC5)cc4)CC3)C2)N1 [Example 111, 2-((4-(4-(piperidin-1-yl)benzyl)piperidin-1-yl)carbonyl)-2,5-diazaspiro[3.4]octan-6-one] | 101 |
| O=C1CCC2(CN(C(=O)N3CCC(C(c4ccccc4)c4ccccc4)CC3)C2)N1 [Example 112, 2-((4-(diphenylmethyl)piperidin-1-yl)carbonyl)-2,5-diazaspiro[3.4]octan-6-one] | 101 |
| O=C1CCC2(CN(C(=O)N3CCN(C(c4ccc(F)cc4)c4ccc(F)cc4)CC3)C2)N1 [Example 113, 2-((4-(bis(4-fluorophenyl)methyl)piperazin-1-yl)carbonyl)-2,5-diazaspiro[3.4]octan-6-one] | 101 |
| O=C1CCC2(CN(C(=O)c3ccc(-c4ccccc4)cc3Cl)C2)N1 [Example 117, 2-((3-chlorobiphenyl-4-yl)carbonyl)-2,5-diazaspiro[3.4]octan-6-one] | 81 |
| Cc1cc(C(=O)N2CC3(CCC(=O)N3)C2)ccc1-c1ccccc1 [Example 118, 2-((2-methylbiphenyl-4-yl)carbonyl)-2,5-diazaspiro[3.4]octan-6-one] | 87 |
| O=C1CCC2(CN(C(=O)c3ccc(-c4ccccc4)c(Cl)c3)C2)N1 [Example 119, 2-((2-chlorobiphenyl-4-yl)carbonyl)-2,5-diazaspiro[3.4]octan-6-one] | 90 |
| O=C1CCC2(CN(C(=O)c3ccc(-c4ccccc4)s3)C2)N1 [Example 126, 2-((5-phenyl-2-thienyl)carbonyl)-2,5-diazaspiro[3.4]octan-6-one] | 85 |
| Cc1cc(-c2ccccc2)sc1C(=O)N1CC2(CCC(=O)N2)C1 [Example 129, 2-((3-methyl-5-phenyl-2-thienyl)carbonyl)-2,5-diazaspiro[3.4]octan-6-one] | 89 |
| O=C1CCC2(CN(C(=O)c3ccc(-c4cccc(C(F)(F)F)c4)c(C(F)(F)F)c3)C2)N1 [Example 131, 2-((2,3′-bis(trifluoromethyl)biphenyl-4-yl)carbonyl)-2,5-diazaspiro[3.4]octan-6-one] | 99 |
| O=C1CCC2(CN(C(=O)c3ccc(-c4cccc(C(F)(F)F)c4)c(OC(F)(F)F)c3)C2)N1 [Example 132, 2-((2-(trifluoromethoxy)-3′-(trifluoromethyl)biphenyl-4-yl)carbonyl)-2,5-diazaspiro[3.4]octan-6-one] | 99 |
| O=C1CCC2(CN(C(=O)c3sc4ccccc4c3Cl)C2)N1 [Example 134, 2-((3-chloro-1-benzothiophen-2-yl)carbonyl)-2,5-diazaspiro[3.4]octan-6-one] | 98 |
| COc1ccc2c(Cl)c(C(=O)N3CC4(CCC(=O)N4)C3)sc2c1 [Example 139, 2-((3-chloro-6-methoxy-1-benzothiophen-2-yl)carbonyl)-2,5-diazaspiro[3.4]octan-6-one] | 99 |
| O=C1CCC2(CN(C(=O)c3sc4cc(F)ccc4c3Cl)C2)N1 [Example 140, 2-((3-chloro-6-fluoro-1-benzothiophen-2-yl)carbonyl)-2,5-diazaspiro[3.4]octan-6-one] | 99 |
| Cc1c(C(=O)N2CC3(CCC(=O)N3)C2)sc2ccccc12 [Example 141, 2-((3-methyl-1-benzothiophen-2-yl)carbonyl)-2,5-diazaspiro[3.4]octan-6-one] | 92 |
| Cc1c(C(=O)N2CC3(CCC(=O)N3)C2)sc2cccc(F)c12 [Example 142, 2-((4-fluoro-3-methyl-1-benzothiophen-2-yl)carbonyl)-2,5-diazaspiro[3.4]octan-6-one] | 96 |
